Test results: the supplement of paper PMC9663587

What was measured:
THZ1 [1] = compound: T1, CN(C)C/C=C/C(=O)Nc1ccc(C(=O)Nc2cccc(Nc3ncc(Cl)c(-c4c[nH]c5ccccc45)n3)c2)cc1 [THZ1]; experiment: GR value, 72 h; higher = faster growth (1 = untreated, <0 = killing);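 also: breast cancer and non-malignant breast epithelial lines, nine half-log doses, viable cells counted by Hoechst and LIVE/DEAD dye imaging versus time-zero plates and DMSO controls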
Neratinib/HKI272 [2] = compound: T2, CCOc1cc2ncc(C#N)c(Nc3ccc(OCc4ccccn4)c(Cl)c3)c2cc1NC(=O)/C=C/CN(C)C [Neratinib/HKI272]; experiment: as above
THZ531 = compound: CN(C)C/C=C/C(=O)Nc1ccc(C(=O)N2CCC[C@@H](Nc3ncc(Cl)c(-c4c[nH]c5ccccc45)n3)C2)cc1 [THZ531]; experiment: increase in dead-cell fraction, 72 h; higher = more death;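 also: breast cancer cell lines in 384-well plates, stained with Hoechst plus LIVE/DEAD far red dye and imaged, cells above an LDR intensity threshold counted dead, Hoechst-negative corpses included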
LEE011/Ribociclib = compound: CN(C)C(=O)c1cc2cnc(Nc3ccc(N4CCNCC4)cn3)nc2n1C1CCCC1 [LEE011/Ribociclib]; experiment: as above
THZ1 [3] = compound: T1, THZ1; experiment: as above
[4] = compound: CC(=O)c1c(C)c2cnc(Nc3ccc(N4CCNCC4)cn3)nc2n(C2CCCC2)c1=O; experiment: as above
Neratinib/HKI272 [5] = compound: T2, Neratinib/HKI272; experiment: as above
[6] = compound: CCN1CCN(Cc2ccc(Nc3ncc(F)c(-c4cc(F)c5nc(C)n(C(C)C)c5c4)n3)nc2)CC1; experiment: as above
[7] = compound: CCc1cnn2c(NCc3ccc[n+]([O-])c3)cc(N3CCCC[C@H]3CCO)nc12; experiment: as above
YKL-5-124 = compound: C=CC(=O)Nc1ccc(C(=O)Nc2[nH]nc3c2CN(C(=O)N[C@H](CN(C)C)c2ccccc2)C3(C)C)cc1 [YKL-5-124]; experiment: as above
Flavopiridol = compound: CN1CC[C@H](c2c(O)cc(O)c3c(=O)cc(-c4ccccc4Cl)oc23)[C@H](O)C1 [Flavopiridol]; experiment: as above
BSJ-03-123 = compound: CC(=O)c1c(C)c2cnc(Nc3ccc(N4CCN(CCOCCOCCOCCNC(=O)COc5cccc6c5C(=O)N(C5CCC(=O)NC5=O)C6=O)CC4)cn3)nc2n(C2CCCC2)c1=O [BSJ-03-123]; experiment: as above

## SUM52PE
THZ1 [1]; 0.0001 µM
  GR value: 1.03 GR
THZ1 [1]; 0.0003162 µM
  GR value: 1.01 GR
THZ1 [1]; 0.001 µM
  GR value: 1.04 GR
THZ1 [1]; 0.003162 µM
  GR value: 0.8 GR
THZ1 [1]; 0.01 µM
  GR value: 0.733 GR
THZ1 [1]; 0.03162 µM
  GR value: 0.0891 GR
THZ1 [1]; 0.1 µM
  GR value: -0.0885 GR
THZ1 [1]; 0.3162 µM
  GR value: -0.151 GR
THZ1 [1]; 1 µM
  GR value: -0.403 GR
Neratinib/HKI272 [2]; 0.0003162 µM
  GR value: 1.01 GR
Neratinib/HKI272 [2]; 0.001 µM
  GR value: 0.991 GR
Neratinib/HKI272 [2]; 0.003162 µM
  GR value: 1.01 GR
Neratinib/HKI272 [2]; 0.01 µM
  GR value: 1.06 GR
Neratinib/HKI272 [2]; 0.03162 µM
  GR value: 1.01 GR
Neratinib/HKI272 [2]; 0.1 µM
  GR value: 1.01 GR
Neratinib/HKI272 [2]; 0.3162 µM
  GR value: 0.959 GR
Neratinib/HKI272 [2]; 1 µM
  GR value: 0.876 GR
Neratinib/HKI272 [2]; 3.162 µM
  GR value: 0.503 GR
THZ531; 0.0001 µM
  increase in dead-cell fraction: -0.0007
THZ531; 0.0003162 µM
  increase in dead-cell fraction: 0.0017
THZ531; 0.001 µM
  increase in dead-cell fraction: -0.0005
THZ531; 0.003162 µM
  increase in dead-cell fraction: -0.0003
THZ531; 0.01 µM
  increase in dead-cell fraction: -0.0005
THZ531; 0.03162 µM
  increase in dead-cell fraction: 0.0015
THZ531; 0.1 µM
  increase in dead-cell fraction: 0.0054
THZ531; 0.3162 µM
  increase in dead-cell fraction: 0.0857
THZ531; 1 µM
  increase in dead-cell fraction: 0.311
LEE011/Ribociclib; 0.001 µM
  increase in dead-cell fraction: 0.0005
LEE011/Ribociclib; 0.003162 µM
  increase in dead-cell fraction: 0.0031
LEE011/Ribociclib; 0.01 µM
  increase in dead-cell fraction: -0.0001
LEE011/Ribociclib; 0.03162 µM
  increase in dead-cell fraction: 0.0002
LEE011/Ribociclib; 0.1 µM
  increase in dead-cell fraction: -0.0001
LEE011/Ribociclib; 0.3162 µM
  increase in dead-cell fraction: 0.0042
LEE011/Ribociclib; 1 µM
  increase in dead-cell fraction: 0.0047
LEE011/Ribociclib; 3.162 µM
  increase in dead-cell fraction: 0.0047
LEE011/Ribociclib; 10 µM
  increase in dead-cell fraction: 0.0071
THZ1 [3]; 0.0001 µM
  increase in dead-cell fraction: 0.0004
THZ1 [3]; 0.0003162 µM
  increase in dead-cell fraction: 0.0008
THZ1 [3]; 0.001 µM
  increase in dead-cell fraction: 0.0052
THZ1 [3]; 0.003162 µM
  increase in dead-cell fraction: 0.0023
THZ1 [3]; 0.01 µM
  increase in dead-cell fraction: 0.002
THZ1 [3]; 0.03162 µM
  increase in dead-cell fraction: 0.061
THZ1 [3]; 0.1 µM
  increase in dead-cell fraction: 0.093
THZ1 [3]; 0.3162 µM
  increase in dead-cell fraction: 0.137
THZ1 [3]; 1 µM
  increase in dead-cell fraction: 0.513
[4]; 0.0003162 µM
  increase in dead-cell fraction: 0.0036
[4]; 0.001 µM
  increase in dead-cell fraction: -0.0018
[4]; 0.003162 µM
  increase in dead-cell fraction: -0.0008
[4]; 0.01 µM
  increase in dead-cell fraction: 0.0002
[4]; 0.03162 µM
  increase in dead-cell fraction: -0.0011
[4]; 0.1 µM
  increase in dead-cell fraction: 0.0033
[4]; 0.3162 µM
  increase in dead-cell fraction: 0.0047
[4]; 1 µM
  increase in dead-cell fraction: 0.006
[4]; 3.162 µM
  increase in dead-cell fraction: 0.0091
Neratinib/HKI272 [5]; 0.0003162 µM
  increase in dead-cell fraction: -0.0009
Neratinib/HKI272 [5]; 0.001 µM
  increase in dead-cell fraction: 0.0018
Neratinib/HKI272 [5]; 0.003162 µM
  increase in dead-cell fraction: 0.0022
Neratinib/HKI272 [5]; 0.01 µM
  increase in dead-cell fraction: 0.0007
Neratinib/HKI272 [5]; 0.03162 µM
  increase in dead-cell fraction: 0.0026
Neratinib/HKI272 [5]; 0.1 µM
  increase in dead-cell fraction: 0.0033
Neratinib/HKI272 [5]; 0.3162 µM
  increase in dead-cell fraction: 0.0005
Neratinib/HKI272 [5]; 1 µM
  increase in dead-cell fraction: 0.0053
Neratinib/HKI272 [5]; 3.162 µM
  increase in dead-cell fraction: 0.0166
[6]; 0.001 µM
  increase in dead-cell fraction: -0.0031
[6]; 0.003162 µM
  increase in dead-cell fraction: -0.0003
[6]; 0.01 µM
  increase in dead-cell fraction: 0.0005
[6]; 0.03162 µM
  increase in dead-cell fraction: 0.0052
[6]; 0.1 µM
  increase in dead-cell fraction: 0.0077
[6]; 0.3162 µM
  increase in dead-cell fraction: 0.0061
[6]; 1 µM
  increase in dead-cell fraction: 0.0107
[6]; 3.162 µM
  increase in dead-cell fraction: 0.0058
[6]; 10 µM
  increase in dead-cell fraction: 0.0135
[7]; 0.0001 µM
  increase in dead-cell fraction: 0.0037
[7]; 0.0003162 µM
  increase in dead-cell fraction: 0.0003
[7]; 0.001 µM
  increase in dead-cell fraction: 0.0018
[7]; 0.003162 µM
  increase in dead-cell fraction: 0.0012
[7]; 0.01 µM
  increase in dead-cell fraction: 0.006
[7]; 0.03162 µM
  increase in dead-cell fraction: 0.101
[7]; 0.1 µM
  increase in dead-cell fraction: 0.333
[7]; 0.3162 µM
  increase in dead-cell fraction: 0.419
[7]; 1 µM
  increase in dead-cell fraction: 0.155
YKL-5-124; 0.001 µM
  increase in dead-cell fraction: 0.0072
YKL-5-124; 0.003162 µM
  increase in dead-cell fraction: 0.0054
YKL-5-124; 0.01 µM
  increase in dead-cell fraction: 0.0099
YKL-5-124; 0.03162 µM
  increase in dead-cell fraction: 0.0108
YKL-5-124; 0.1 µM
  increase in dead-cell fraction: 0.013
YKL-5-124; 0.3162 µM
  increase in dead-cell fraction: 0.0189
YKL-5-124; 1 µM
  increase in dead-cell fraction: 0.009
YKL-5-124; 3.162 µM
  increase in dead-cell fraction: 0.0202
YKL-5-124; 10 µM
  increase in dead-cell fraction: 0.0275
Flavopiridol; 0.0001 µM
  increase in dead-cell fraction: 0.0019
Flavopiridol; 0.0003162 µM
  increase in dead-cell fraction: -0.0012
Flavopiridol; 0.001 µM
  increase in dead-cell fraction: 0.0042
Flavopiridol; 0.003162 µM
  increase in dead-cell fraction: 0.0019
Flavopiridol; 0.01 µM
  increase in dead-cell fraction: -0.0015
Flavopiridol; 0.03162 µM
  increase in dead-cell fraction: 0
Flavopiridol; 0.1 µM
  increase in dead-cell fraction: 0.0003
Flavopiridol; 0.3162 µM
  increase in dead-cell fraction: 0.0166
Flavopiridol; 1 µM
  increase in dead-cell fraction: 0.392
BSJ-03-123; 0.001 µM
  increase in dead-cell fraction: -0.0027
BSJ-03-123; 0.003162 µM
  increase in dead-cell fraction: 0.001
BSJ-03-123; 0.01 µM
  increase in dead-cell fraction: 0.0043
BSJ-03-123; 0.03162 µM
  increase in dead-cell fraction: 0.0027
BSJ-03-123; 0.1 µM
  increase in dead-cell fraction: 0.0025
BSJ-03-123; 0.3162 µM
  increase in dead-cell fraction: 0.0035
BSJ-03-123; 1 µM
  increase in dead-cell fraction: 0.0021
BSJ-03-123; 3.162 µM
  increase in dead-cell fraction: 0.0075
BSJ-03-123; 10 µM
  increase in dead-cell fraction: 0.025
